Reference: patent publication US7446210B2, “Factor Xa compounds” (Janssen Pharmaceutica N.V., priority 2004, dated 2008)
Counter-ions that a name gives are not always drawn. Like-named read-outs stand apart in the source and are kept apart here.

Legend:
human α-thrombin = biological target: T1, human α-thrombin (Homo sapiens, UniProt P00734); assay: In vitro inhibition of purified enzymes, Ki determination: thrombin (hydrolysis of N-succinyl-Ala-Ala-Pro-Arg-p-nitroanilide); type: biochemical; conditions: substrate N-succinyl-Ala-Ala-Pro-Arg-p-nitroanilide, 37° C., pH 7.5
T1 construct: Purified human a-thrombin was diluted into assay buffer; purchased Enzyme Research Laboratories (South Bend, Ind.)
Text: (§1) Reagents: All buffer salts were obtained from Sigma Chemical Company (St. Louis, Mo.), and were of the highest purity available. The enzyme substrate, S-2765 (Z-D-Arg-Gly-Arg-p-nitroanilide) was obtained from DiaPharma (West Chester, Ohio). N-succinyl-Ala-Ala-Pro-Arg-p-nitroanilide (BACHEM L-1720) was obtained from BACHEM (King of Prussia, Pa.). N-p-Tosyl-Gly-Pro-Lys-p-nitroanilide (Sigma T6140), N-succinyl-Ala-Ala-Pro-Phe-p-nitroanilide (Sigma S7388), N-CBZ-Val-Gly-Arg-p-nitroanilide (Sigma C7271) was obtained from Sigma and N-succinyl-Ala-Ala-Pro-Val-p-nitroanilide (BACHEM L-1770) was obtained from BACHEM (King of Prussia, Pa.).
(§2) Human α-thrombin and human Factor Xa were obtained from Enzyme Research Laboratories (South Bend, Ind.). Human trypsin was obtained from Calbiochem (La Jolla, Calif.). Human plasmin was obtained from Enzyme Research Laboratories (South Bend, Ind.). Bovine a-chymotrypsin (Sigma C4129) and human kidney cell urokinase (Sigma U5004) was obtained from Sigma. Human leukocyte elastase was obtained from Elastin Products (Pacific, Mo.).
(§3) Ki Determinations: All assays are based on the ability of the test compound to inhibit the enzyme-catalyzed hydrolysis of a peptide p-nitroanilide substrate. In a typical Ki determination, substrate is prepared in DMSO, and diluted into an assay buffer consisting of 50 mM HEPES, pH 7.5, 200 mM NaCl, 0.05% n-octyl b-d-glucopyranoside. The final concentrations for each of the substrates are listed below. In general, substrate concentrations are lower than the experimentally determined value for Km. Test compounds are prepared as 10 mM solutions in DMSO. Dilutions are prepared in DMSO yielding 7 final concentrations encompassing a 200-fold concentration range. Enzyme solutions are prepared at the concentrations listed below in assay buffer.
(§4) Reactions were initiated by the addition of a […] aliquot of enzyme and the absorbance increase at 405 nm is recorded for 15 minutes. Data corresponding to less than 10% of the total substrate hydrolysis were used in the calculations. The ratio of the velocity (rate of change in absorbance as a function of time) for a sample containing no test compound is divided by the velocity of a sample containing test compound, and is plotted as a function of test compound concentration. The data are fit to a linear regression, and the value of the slope of the line calculated. The inverse of the slope is the experimentally determined apparent Ki value (Ki app). The Ki is calculated from the Ki app using the Ki factor specific for the assay, where Ki=Ki app×Ki factor, or Ki=Ki app×(1/ (1+[S]/Km)).
Thrombin: Thrombin activity was assessed as the ability to hydrolyze the substrate N-succinyl-Ala-Ala-Pro-Arg-p-nitroanilide (Km=320 mM, Ki factor=0.76). Substrate solutions were prepared at a concentration of 107 mM in assay buffer. Final DMSO concentration was 4.3%. Purified human a-thrombin was diluted into assay buffer to a concentration of 33 nM. Final reagent concentrations were: [thrombin]=1.1 nM, [substrate N-succinyl-Ala-Ala-Pro-Arg-p-nitroanilide]=100 mM.

Factor Xa [1] = biological target: T2, Factor Xa (Homo sapiens, UniProt P00742); assay: In vitro inhibition of purified enzymes, Ki determination: Factor Xa (hydrolysis of S-2765); type: biochemical; parameters: purchased Enzyme Research Laboratories (South Bend, Ind.); conditions: purified activated human Factor X, substrate S-2765, 37° C., pH 7.5; read-out: KI FXa
T2 sequence (P00742 235-488 limits assumed): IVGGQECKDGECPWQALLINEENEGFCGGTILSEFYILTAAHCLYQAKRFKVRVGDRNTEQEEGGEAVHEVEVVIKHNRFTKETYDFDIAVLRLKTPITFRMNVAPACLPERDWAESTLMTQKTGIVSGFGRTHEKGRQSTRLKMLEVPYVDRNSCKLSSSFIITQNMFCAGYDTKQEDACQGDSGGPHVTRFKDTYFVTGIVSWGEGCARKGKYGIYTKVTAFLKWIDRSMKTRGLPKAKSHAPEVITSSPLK
T2 sequence (P00742 41-179 partner limits assumed): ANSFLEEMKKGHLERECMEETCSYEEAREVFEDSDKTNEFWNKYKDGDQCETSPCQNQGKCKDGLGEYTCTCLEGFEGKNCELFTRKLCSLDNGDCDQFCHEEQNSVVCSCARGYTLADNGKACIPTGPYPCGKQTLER
Text: as §1, §2, §3, §4
Substrate solutions were prepared at a concentration of 107 mM in assay buffer. Final DMSO concentration was 3.3%. Purified activated human Factor X was diluted into assay buffer to a concentration of 16 nM. Final reagent concentrations were: [Factor Xa]=0.53 nM, [S-2765]=100 mM.

human trypsin = biological target: T3, human trypsin; assay: In vitro inhibition of purified enzymes, Ki determination: trypsin (hydrolysis of S-2765); type: biochemical; conditions: substrate S-2765, 37° C., pH 7.5
T3 construct: Purified human trypsin was diluted into assay buffer to a concentration of 10 nM
Text: as §1, §2, §3, §4
Trypsin: Trypsin activity was assessed as the ability to hydrolyze the substrate S-2765 (Z-D-Arg-Gly-Arg-p-nitroanilide, Km=61 mM, Ki factor=0.50). Substrate solutions were prepared at a concentration of 64 mM in assay buffer. Final DMSO concentration was 3.3%. Purified human trypsin was diluted into assay buffer to a concentration of 10 nM. Final reagent concentrations were: [Trypsin]=0.33 nM, [S-2765]=60 mM.

Factor Xa [2] = biological target: T2, Factor Xa; conditions: background statement; cited from earlier work

Ki (human α-thrombin) [nM]	Ki (Factor Xa [1]) [nM]	Ki (human trypsin) [nM]	Molecule	Ki (Factor Xa [2]) [nM]
> 15200	2	> 10000	CN(C)Cc1cnccc1-c1ccc(-c2ccc3c(C(N)=O)nn(-c4ccc5onc(N)c5c4)c3c2F)c(F)c1 [Example 66, 1-(3-Amino-benzo[d]isoxazol-5-yl)-6-[4-(3-dimethylaminomethyl-pyridin-4-yl)-2-fluoro-phenyl]-7-fluoro-1H-indazole-3-carboxylic acid amide]	–
–	660	–	COc1cccc(-n2nc(C)c3ccc(-c4ccc(N5CCCCC5=O)cc4)c(F)c32)c1 [Example 4, 1-{4-[7-fluoro-1-(3methoxy-phenyl)-3-methyl-1H-indazol-6-yl]-phenyl}-piperidin-2-one]	–
> 15200	5	> 10000	CN(C)CCCN(c1ccncc1)c1ccc(-c2ccc3c(C(N)=O)nn(-c4ccc5onc(N)c5c4)c3c2F)c(F)c1 [Example 59, 1-(3-Amino-benzo[d]isoxazol-5-yl)-6-{4-[(3-dimethylamino-propyl)-pyridin-4-yl-amino]-2-fluoro-phenyl}-7-fluoro-1H-indazole-3-carboxamide dimesylate salt]	–
> 15200	40	> 10000	Cc1nn(-c2ccc3onc(N)c3c2)c2c(F)c(-c3ccc(-n4ccccc4=O)cc3F)ccc12 [Example 25, 1-{4-[1-(3-Amino-benzo[a]isoxazol-5-yl)-7-fluoro-3-methyl-1H-indazol-6-yl]-3-fluoro-phenyl}-1H-pyridin-2-one]	–
> 15200	120	> 10000	Cc1nn(-c2cccc(CN)c2)c2c(F)c(-c3ccc(N4CCCCC4=O)cc3)ccc12 [Example 6, 1-{4-[1-(3-Aminomethyl-phenyl)7-fluoro-1-3-methyl-1H-indazol-6-yl]-phenyl}-piperidin-2-one]	–
> 15200	340	> 10000	O=C1CCCCN1c1ccc(-c2ccc3c(C(F)(F)F)nn(-c4cccc(Cl)c4)c3c2F)c(F)c1 [Example 95, 1-{4-[1-(3-Chloro-phenyl)-7-fluoro-3-trifluoromethyl-1H-indazol-6-yl]-3-fluoro-phenyl}-piperidin-2-one]	–
> 15200	48	> 10000	Cc1nn(-c2ccc3onc(N)c3c2)c2c(F)c(-c3ccc(N4CCCCC4=O)cc3)ccc12 [Example 86, 1-{4-[1-(3-Amino-benzo[d]isoxazol-5-yl)-7-fluoro-3-methyl-1H-indazol-6-yl]-phenyl}-piperidin-2-one]	–
1600	1	140	Cc1nn(-c2cccc(C(=N)N)c2)c2c(F)c(-c3ccc(N4CCCCC4=O)cc3F)ccc12 [Example 75, 3-{7-Fluoro-6-[2-fluoro-4-(2-oxo-piperidin-1-yl)-phenyl]-3-methyl-indazol-1-yl}-benzamidine]	–
> 15200	45	1500	Cc1nn(-c2cccc(CN)c2)c2c(F)c(-c3ccc(-c4ccccc4S(C)(=O)=O)cc3F)ccc12 [Example 82, 3-[7-Fluoro-6-(3-fluoro-2′-methanesulfonyl-biphenyl-4-yl)-3-methyl-indazol-1-yl]-benzylamine]	–
–	–	–	tick anticoagulant peptide (YNRLCIKPRDWIDECDSNEGGERAYFRNGKGGCDSFWICPEDHTGADYYSSYRDCFNACI; UniProt P17726 1-60, looked up) [TAP]	~0.5
> 15200	33	2900	Cc1nn(-c2cccc(CN)c2)c2c(F)c(-c3ccc(N(C)c4ccncc4)cc3F)ccc12 [Example 35]	–
–	–	–	antistasin [ATS]	0.05
> 15200	220	700	Cc1nn(-c2cccc(CN)c2)c2c(F)c(-c3ccc(N4CCCC4=O)cc3)ccc12 [Example 7, 1-{4-[1-(3-Aminomethyl-phenyl)-7-fluoro-1-3-methyl-1H-indazol-6-yl]-phenyl}-pyrolidin-2-one]	–
> 15200	2820	1590	Cc1nn(-c2cccc(CN)c2)c2c(F)c(-c3ccc(C#Cc4ccc5nc(N)sc5c4)cc3)ccc12 [Example 15, 6{4-1-(3-Aminomethyl-phenyl)-7-fluoro-3-methyl-1H-indazol]-phenylethynyl-benzothiazol-2-ylamine]	–
> 15200	6	> 10000	NC(=O)c1nn(-c2ccc3onc(N)c3c2)c2c(F)c(-c3ccc(N4CCOCC4=O)cn3)ccc12 [Example 43, 1-(3-Amino-benzo[d]isoxazol-5-yl)-7-fluoro-6-[5-(3-oxo-morpholin-4-yl)-pyridin-2-yl]-1H-indazole-3-carboxylic acid amide; methanesulfonic acid salt]	–
> 15200	46	> 10000	Cc1nn(-c2ccc3ccnc(N)c3c2)c2c(F)c(-c3ccc(-c4ccccc4S(C)(=O)=O)cc3F)ccc12 [Example 93, 7-[7-Fluoro-6-(3-fluoro-2′-methanesulfonyl-biphenyl-4-yl)-3-methyl-indazol-1-yl]-isoquinolin-1-ylamine]	–
